In the supplement of paper PMC8671470:

Columns and labels:
Details in all cases: 72 h
HL-60 [1] = assay: cell viability (% survival relative to DMSO control); higher = less cytotoxic
Summary of the method: (§1)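 Area under the curve, where listed, was derived from four-parameter log-logistic fits with drc and PharmacoGx. These fits used CellTiter-Glo viability from HL-60 cells in RPMI 1640 with 10% FBS, normalised to DMSO wells and wells holding 10 μM proteasome inhibitor. The full library was rescreened on 384-well plates in duplicate at five tenfold concentrations, 1–10,000 nM, with DMSO or 100 nM of one of three metabolic inhibitors, for 72 h at 37 °C, 5% CO2.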

HL-60 [2] = assay: area under dose-response curve (viability, 1 nM-10 uM) (fraction (0-1)); higher = more sensitive
Summary of the method: as §1

KCL-22 [3] = tested on: KCL-22
Summary of the method: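 Fifteen myeloid leukaemia cell lines were seeded in RPMI 1640 at a density titrated to the linear growth range. Each line went into 384-well plates with compounds acoustically pre-printed at five tenfold doses from 1 to 10,000 nM, in duplicate, and was incubated for 72 h at 37 °C with 5% CO2. Luminescent ATP viability was normalised to vehicle and to a positive control at 10 µM. The IC50 came from four-parameter log-logistic dose–response fits.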

KG-1 = assay: cell viability (% survival relative to DMSO control, bortezomib = 0%); higher = less cytotoxic
Summary of the method: (§2)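 After 72 h at 37 °C with 5% CO2, cell viability in 384-well plates was measured by CellTiter-Glo luminescence. The plates held compounds pre-printed at 1, 10, 100, 1000 or 10000 nM in duplicate, and cells from 10 AML and 5 CML lines seeded at densities titrated to linear growth. Percent survival is the duplicate mean, normalised to vehicle as 100% and a 10 µM positive control as 0%.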

HL-60 [4] = assay: as above
Summary of the method: as §2

LAMA-84 = assay: as above
Summary of the method: as §2

KCL-22 [5] = assay: as above
Summary of the method: as §2

ML-2 = assay: as above
Summary of the method: as §2

K-562 = assay: as above
Summary of the method: as §2

HEL = assay: as above
Summary of the method: as §2

SHI-1 = assay: as above
Summary of the method: as §2

THP-1 = assay: as above
Summary of the method: as §2

MOLM-13 = assay: as above
Summary of the method: as §2

MV4-11 = assay: as above
Summary of the method: as §2

BV-173 = assay: as above
Summary of the method: as §2

NOMO-1 = assay: as above
Summary of the method: as §2

KU-812 = assay: as above
Summary of the method: as §2

Mono-Mac-6 = assay: as above
Summary of the method: as §2

CC[C@H](C)C(=O)O[C@H]1C[C@@H](C)C=C2C=C[C@H](C)[C@H](CC[C@@H]3C[C@@H](O)CC(=O)O3)[C@H]21 [Lovastatin]
cell viability [%], HL-60 [1]
Details | 0.001 µM | 0.01 µM | 0.1 µM | 1 µM | 10 µM
co-treatment: AZD3965 100 nM | 92.4 | 104.3 | 101 | 98.2 | 94.1
co-treatment: DMSO vehicle | 96.8 | 102 | 101 | 96.5 | 95.5
co-treatment: GSK2194069 100 nM | 104 | 107 | 104 | 102 | 98.48
co-treatment: pictilisib 100 nM | 98.2 | 105 | 98.1 | 94.1 | 75.54

Details | area under dose-response curve, co-treatment: AZD3965 100 nM | area under dose-response curve, co-treatment: DMSO vehicle | area under dose-response curve, co-treatment: GSK2194069 100 nM | area under dose-response curve, co-treatment: pictilisib 100 nM | cell viability, 1 nM [%] | cell viability, 10 nM [%] | cell viability, 100 nM [%] | cell viability, 1000 nM [%] | cell viability, 10000 nM [%]
BV-173 | – | – | – | – | 109 | 94.6 | 95.3 | 98.7 | 79.1
HEL | – | – | – | – | 101 | 87.8 | 114 | 92.6 | 86.3
HL-60 [2] | < 0.0301 | < 0.0301 | < 0.0301 | 0.0554 | – | – | – | – | –
HL-60 [4] | – | – | – | – | 96.8 | 113 | 101 | 101 | 102
K-562 | – | – | – | – | 108 | 98.9 | 101 | 99.3 | 88.4
KCL-22 [5] | – | – | – | – | 93.6 | 67.8 | 114 | 98.8 | 95.4
KG-1 | – | – | – | – | 98.7 | 93.3 | 107 | 96.3 | 90.2
KU-812 | – | – | – | – | 102 | 96.4 | 94 | 87.2 | 84
LAMA-84 | – | – | – | – | 88.8 | 103 | 104 | 92.3 | 90.9
ML-2 | – | – | – | – | 108 | 105 | 111 | 104 | 102
MOLM-13 | – | – | – | – | 86.4 | 85.7 | 83.8 | 87.4 | 74.7
MV4-11 | – | – | – | – | 97.6 | 97.3 | 106 | 93.5 | 93.2
Mono-Mac-6 | – | – | – | – | 97.4 | 101 | 95.7 | 96.8 | 92.2
NOMO-1 | – | – | – | – | 101 | 91.9 | 97.2 | 93.6 | 90.7
SHI-1 | – | – | – | – | 97.5 | 97.6 | 104 | 93.8 | 92.5
THP-1 | – | – | – | – | 98.1 | 88.8 | 100 | 97.3 | 98.6

Details | IC50 (cell viability) [µM]
KCL-22 [3] | > 10

CCC(=O)N1CCN(c2ccc(-n3c(=O)ccc4cnc5ccc(-c6cnc7ccccc7c6)cc5c43)cc2C(F)(F)F)CC1 [Torin1]
cell viability [%], HL-60 [1]
Details | 0.001 µM | 0.01 µM | 0.1 µM | 1 µM | 10 µM
co-treatment: AZD3965 100 nM | 105 | 100 | 91.3 | 99 | 51.4
co-treatment: DMSO vehicle | 97.9 | 102.1 | 93.4 | 101 | 65.4
co-treatment: GSK2194069 100 nM | 106 | 106 | 92.1 | 104.4 | 72.7
co-treatment: pictilisib 100 nM | 100 | 104 | 80 | 85.8 | 65.5

Details | area under dose-response curve, co-treatment: AZD3965 100 nM | area under dose-response curve, co-treatment: DMSO vehicle | area under dose-response curve, co-treatment: GSK2194069 100 nM | cell viability, 1 nM [%] | cell viability, 10 nM [%] | cell viability, 100 nM [%] | cell viability, 1000 nM [%] | cell viability, 10000 nM [%]
BV-173 | – | – | – | 111 | 80.7 | 89.1 | 20.9 | 8.44
HEL | – | – | – | 109 | 105 | 99.3 | 36.4 | 14.7
HL-60 [2] | 0.0362 | < 0.0301 | < 0.0301 | – | – | – | – | –
HL-60 [4] | – | – | – | 73.2 | 95.1 | 85.7 | 65.3 | 24.6
K-562 | – | – | – | 108 | 87 | 85.9 | 24.7 | 11.7
KCL-22 [5] | – | – | – | 102 | 110 | 87.8 | 10.9 | 8.17
KG-1 | – | – | – | 94.9 | 89.7 | 81.5 | 29.1 | 26
KU-812 | – | – | – | 97.7 | 87.1 | 73.1 | 24.4 | 20.1
LAMA-84 | – | – | – | 105 | 93.1 | 80.2 | 28.8 | 21.8
ML-2 | – | – | – | 96.1 | 99.7 | 91.5 | 46.5 | 33.5
MOLM-13 | – | – | – | 93 | 77.8 | 70 | 16.2 | 12.9
MV4-11 | – | – | – | 88.9 | 95.7 | 90.8 | 26.1 | 11.1
Mono-Mac-6 | – | – | – | 92.2 | 85.5 | 75.8 | 35.7 | 21.7
NOMO-1 | – | – | – | 109 | 96.2 | 93.4 | 47.5 | 37.1
SHI-1 | – | – | – | 89.8 | 92 | 80.2 | 48.9 | 69.4
THP-1 | – | – | – | 104 | 98.5 | 96.9 | 58.9 | 33.9

Details | IC50 (cell viability) [µM]
KCL-22 [3] | 0.251
